{"source": "patent US20030161893A1", "about": "“PTPase inhibitors and methods of using the same” (priority 2001, published 2003)", "key": {"[1]": {"molecular_target": "T1, PTP1B (Homo sapiens, UniProt P18031)", "T1 construct": "purchased Upstate Biotechnology Inc. (Lake Placid, N.Y.)", "T1 sequence (P18031 whole entry, species assumed, the tested form may be a part)": "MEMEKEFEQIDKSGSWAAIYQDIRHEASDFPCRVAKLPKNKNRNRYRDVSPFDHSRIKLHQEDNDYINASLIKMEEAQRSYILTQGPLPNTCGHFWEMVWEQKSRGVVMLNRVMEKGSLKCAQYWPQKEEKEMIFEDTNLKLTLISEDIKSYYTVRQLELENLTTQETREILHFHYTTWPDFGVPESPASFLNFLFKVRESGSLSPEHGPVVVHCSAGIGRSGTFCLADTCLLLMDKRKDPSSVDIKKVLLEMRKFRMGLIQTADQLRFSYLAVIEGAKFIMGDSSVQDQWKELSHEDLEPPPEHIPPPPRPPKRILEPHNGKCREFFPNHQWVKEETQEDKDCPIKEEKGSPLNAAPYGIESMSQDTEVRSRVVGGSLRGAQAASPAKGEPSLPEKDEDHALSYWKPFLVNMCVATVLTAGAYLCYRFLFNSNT", "test": "In vitro PTPase assay, GST/PTP1B fusion protein", "type": "biochemical", "settings": "0.1 to 1 μg/ml", "method": "In vitro PTPase activities were measured using the commercial protein tyrosine phosphatase assay kit (Upstate Biotechnology, Inc. (“UBI”)) following established procedure known to one of skill in the art. This assay measures the in vitro dephosphorylation of a synthetic phosphotyrosine peptide of the sequence Arg-Arg-Leu-Ile-Glu-Asp-Ala-Gle-Tyr-Ala-Ala-Arg-Gly, wherein the tyrosine is phosphorylated (SEQ ID NO: 3). Briefly, 0.01 μg of GST/PTPase fusion proteins was incubated in 50 μl of Tris buffer (10 mM Tris, pH 7.4) containing different concentrations of inhibitors or chemicals (0-1,000 μg/ml) at 22° C. for 10 minutes, followed by addition of 0.2 mM of the phosphotyrosine peptide and incubation at 22° C. for 18 hours. 100 μl of Malachite Green solution was added and incubated for 5 minutes, and the absorbance at 660 nm was measured after 5 minutes."}, "[2]": {"system": "TF-1 cells", "test": "TF-1 cell proliferation assay", "type": "cell-based, human", "method": "The murine hematopoietic cell line Baf3 was maintained in RPMI 1640 medium supplemented with 10% fetal calf serum (FCS) and murine IL-3 (20 units/ml) as described previously in Damen et al., J. Biol. Chem. 270, 23402 (1995). Human myeloid cell line TF-1 was maintained in RPMI 1640 supplemented with 10% FCS and 40 ng/ml of recombinant human GM-CSF as described previously in Thomassen et al., Clin. Immunol. 95, 85 (2000). For cell proliferation assays, cells were washed in 10% FCS medium twice, resuspended in 10% FCS medium, incubated at 37° C. for 16 hours, and then cultured at 37° C. in 10% FCS medium containing various amounts of cytokines, sodium stibogluconate, or potassium antimonyl tartrate for 3-6 days as indicated. The cell numbers in proliferation assays were determined by an MTT assay or by microscopic cell counting as indicated."}, "[3]": {"system": "NB4 cells", "test": "NB4 cell differentiation (NBT reduction, CD11b)", "type": "cell-based, human", "method": "Differentiation of AML cell lines was assessed by their ability to produce superoxide as measured by reduction of NBT to formazan and by analysis of expression of CD11b surface marker by flow cytometry. For NBT reduction, each cell suspension was mixed with an equal volume of solution containing 1 mg/ml of NBT (Sigma) and 2.5 μg/ml of TPA for 30 minutes at 37° C. After incubation, cells containing the purple formazan deposits and cells devoid of NBT-reducing activity (white cells) in each sample were determined by counting 200 cells under microscope. Data is expressed as a percentage based on the following ratio: purple cells/purple+white cells. For analysis of cell surface antigens, cells were exposed to phycoerythrin (PE)-conjugated murine anti-human CD11b (DAKO Corp., Carpinteria, Calif.). Analysis of fluorescence was performed on a FACScan flow cytometer (Beckton Dickinson, Mountain View, Calif.)."}, "[4]": {"system": "Stat1", "test": "IFN-alpha-induced Stat1 tyrosine phosphorylation, DR cells", "type": "cell-based, human", "method": "(§1) For induction of Stat1 tyrosine phosphorylation by IFN-alpha in the absence or presence of sodium stibogluconate, cells grown in 10% FCS RPMI 1640 medium at 37° C. were stimulated with IFN-alpha (50 u/ml) for various time points and treated with or without sodium stibogluconate for 5 minutes prior to termination by lysing the cells in cold lysis buffer (1% NP-40; 50 mM Tris, pH 7.4; 100 mM NaCl; 1 mM EDTA, 10% glycerol, 10 mM sodium molybdic acid and 4 mM AEBSF).\n(§2) Cell lysates were prepared by lysing cells in cold lysis buffer for 30 min and cleared by centrifuging at 14,000 rpm at 4° C. for 15 min. For SDS-PAGE, cell lysates were mixed with equal volume of 2×SDS-PAGE sample buffer, heated at 90° C. for 5 min and separated in 10% SDS-PAGE gels. Cellular proteins in SDS-PAGE gels were transferred to nitrocellulose membrane (Schleicher & Schuell, Keene, N.H.), blocked in 5% milk, probed with antibodies and detected by using an enhanced chemiluminescence kit (ECL, Amersham, Arlington Heights, Ill.)."}, "[5]": {"system": "Stat1", "test": "IFN-alpha-induced Stat1 tyrosine phosphorylation, WiT49-N1 cells", "type": "cell-based, human", "method": "as §1, §2"}, "[6]": {"system": "A549 cells", "test": "Cell growth assay (MTT), A549 lung cancer cells", "type": "cell-based, human", "settings": "100 μg/ml, day 6", "method": "(§3) NIH3T3 (Yi, et al., Blood 85, 87 (1995)), WM9 (Forsberg, et al., Proc. Nat. Acad Sci. USA 90, 393 (1993)), DU145 (Mickey, et al., Cancer Res. 37, 4049 (1977)), LoVo (Drewinko, et al., Cancer Res. 36, 467 (1976)), HEY (Buick, et al., Cancer Res. 45, 3668 (1985)), U251 (Yoshida, et al., Cancer 50, 410 (1982)), A549 (Giard, et al., J. Natl. Cancer Inst. 51, 1417 (1973)) and SK-N-SH (Helson, et al., Cancer Res. 35, 2594 (1975)) cell lines have been described and were cultured in RPMI 1640 supplemented with 10% fetal calf serum (FCS). For measurement of sodium stibogluconate effects on cell growth in vitro, cells were cultured in the absence (−) or presence (+) of various amounts of sodium stibogluconate for 6 days with viable cells quantified by MTT assays (Mosmann, J. Imunol. Methods 65, 55 (1983)). Percentages of growth inhibition by sodium stibogluconate were calculated (+/−×%)."}, "[7]": {"system": "SK-N-SH cells", "test": "Cell growth assay (MTT), SK-N-SH neuroblastoma cells", "type": "cell-based, human", "settings": "100 μg/ml, day 6", "method": "as §3"}, "[8]": {"system": "WM9 PRL-1R86 transfectant", "test": "Growth of WM9 PRL-1R86 transfectant (MTT)", "type": "cell-based, human", "settings": "50 or 100 μg/ml, 6 days", "method": "as §3\nThe effects of sodium stibogluconate on intracellular PTPases were assessed using NIH3T3 or WM9 transfectants. NIH3T3 or WM9 cells were transfected with the pBabepuro vector (V) or pBabepuro expression constructs of Flag-tagged PRLs using Lipofectamine (BRL) following the manufacturer's procedures. […]"}}, "data": [{"smiles": "O.O.O.O.O.O.O.O.O.O=C([O-])[C@@H]1[O][Sb]2([O-])([O][Sb]34([OH])[O][C@H]([C@H](O)CO)[C@H]([O]3)[C@H](C(=O)[O-])[O]4)[O][C@H]([C@H](O)CO)[C@@H]1[O]2.[Na+].[Na+].[Na+]", "note": "[sodium stibogluconate]", "values": [{"measurement": "inhibition of PTP1B activity", "setting": "[1]", "value": "only modestly effective"}, {"measurement": "GM-CSF-induced proliferation of TF-1 cells", "setting": "[2]; 50 μg/ml, GM-CSF 5-40 ng/ml", "value": "augmented"}, {"measurement": "growth inhibition activity of IFN-alpha in TF-1 cells in presence of drug", "setting": "[2]; 50 μg/ml, with GM-CSF", "value": "enhanced"}, {"measurement": "effect of low doses on GM-CSF-induced TF-1 growth", "setting": "[2]; 12.5-50 μg/ml", "value": "no negative effect on GM-CSF-induced cell growth"}, {"measurement": "interaction with ATRA in differentiation induction", "setting": "[3]", "value": "did not synergize with ATRA"}, {"measurement": "reversibility of induced NB4 differentiation after drug removal", "setting": "[3]; 6 days with drug (10 or 100 μg/ml), washed, 6 days without", "value": "not reversed"}, {"measurement": "IFN-alpha-induced Stat1 tyrosine phosphorylation versus control", "setting": "[4]; 10 μg/ml, 30 min post-stimulation", "value": "two folds greater than control"}, {"measurement": "Stat1 tyrosine phosphorylation by drug alone", "setting": "[4]; absence of IFN-alpha", "value": "failed to induce Stat1 tyrosine phosphorylation"}, {"measurement": "IFN-alpha-induced Stat1 tyrosine phosphorylation", "setting": "[5]", "value": "failed to enhance"}, {"measurement": "cell killing, A549", "setting": "[6]", "value": "near-complete cell killing"}, {"measurement": "cell killing, SK-N-SH", "setting": "[7]", "value": "near-complete cell killing"}, {"measurement": "growth inhibition of R86 cells at higher doses", "setting": "[8]", "value": "only modest growth inhibition"}]}]}
